By melting point is commonly meant the temperature, or range, at which the solid turns liquid.

Residues, ends and D or L forms follow the SMILES beside them. *: point of attachment. OiPr = CC(C)O*

Turning to `CCCCC(=O)c1c(-c2ccc3c(Br)c(OCC(=O)O)ccc3c2)oc2ccc(Cl)cc12`, the melting point is 130 to 132 °C.
With `CC(=O)N[C@@H]1c2ccccc2C[C@@H]1C` (relative stereo) the figure was 146 to 147 °C.
With `CCOC(=S)c1c(COC)nc2cc(F)c(F)cc2c1O` the figure was 126 to 129 °C.
With `O=c1c2ccccc2nc(-c2cc(-c3ccccc3)c(N3CCOCC3)s2)n1-c1ccccc1` the figure was 218 to 220 °C; with `CCCCc1nc2c(N)nc3ccccc3c2n1CCCCCC(=O)c1ccccc1`, 149 to 151 °C; with `CC1CC(=Cc2ccccc2OCC(O)CN2CCC(c3ccc4ccccc4c3)CC2)C(=O)O1` (centres undefined), 142 to 144 °C.
The compound `CCOC(=O)C(C#N)=Cc1cc(OC)c(OC)c2c1C=CCO2` had a melting point of 104 to 108 °C.
As for `CCOC(=O)C1(C(=O)O)CN(C2CC2)c2nc3cc(N4CC(N)C4C)c(F)cc3cc2C1=O` (centres undefined), the figure is 170 °C; as for `CC(C)COC1=C(Cc2ccc(Cl)cc2)C(=O)CC(C)(C)C1`, 60 to 61 °C; as for `CCCCc1nc(O)c(CC(=O)OCC)c(O)n1`, 260 °C.
`Cc1ccc2c(c1)c1cc(-c3cc(F)cc(F)c3)c(=O)n(C)c1n2C`: the melting point came out at 240 °C.
Compound `CS(=O)(=O)Nn1c(=O)[nH]c2cc([N+](=O)[O-])c(-n3ccnc3)cc2c1=O` registered a melting point of more than 270 °C.
As for `O=C1SCNc2sccc21`, the figure is 153 to 155 °C; as for `O=C(O)c1c(Sc2ccccc2)c2ccccc2n1-c1ccc2c(c1)OCO2`, 182 to 183 °C; as for `NC(=O)CC(CC(N)=O)c1ccccc1Br`, 168 to 170 °C.
Consider `CCCCOc1ccc(S(=O)(=O)C2(C(=O)NO)CCN(Cc3ccccn3)CC2)cc1`, for which the melting point amounted to 118 °C.
In turn, `CN(c1ccc2c(c1)CCC2)c1nc(=O)c2cccnc2s1` had a melting point of 157 to 160 °C.
As for `CS(=O)(=O)Nc1cc2occ(S(C)(=O)=O)c(=O)c2cc1Oc1ccccc1`, the figure is more than 250 °C; as for `Cc1cc2ccccc2nc1-n1cncn1`, 80 to 81 °C.
As for `O=c1[nH]c2ccc(S(=O)CCN3CCC(Cc4ccccc4F)CC3)cc2o1` (centres undefined), the figure is 179 to 181 °C; as for `CCOC(=O)c1cn(-c2ccccc2)c2oc(CN3CCOCC3)cc2c1=O`, 210 to 212 °C; as for `CCC1(CCCCCN2CCN(c3ccccn3)CC2)C(=O)Nc2ccccc21` (centres undefined), 127 to 128 °C.
As for `CN1C(=O)C(c2ccc(OC(F)F)cc2)(c2cccc(OC(F)F)c2)N=C1N` (centres undefined), the figure is 52 to 54 °C; as for `COC(=O)C(C)c1ccc2nc3ccc(Cl)cn3c(=O)c2c1` (centres undefined), 173 °C; as for `CC(C)(N)c1ccc(-c2nc(Nc3cccc(CCO)c3)ncc2Cl)cc1`, 184 to 185 °C.
In turn, `COc1cc(N(C)C)ccc1CN1C(=O)C(C)(c2ccccc2Cl)c2cc(Cl)ccc21` (centres undefined) came in with a melting point of 135 °C.
As for `CC(C)(C)ON=C1CCC(NC(=O)Oc2ccc([N+](=O)[O-])cc2)CC1` (centres undefined), the figure is 132 °C; as for `C=CCNC(=O)n1nc(-c2ccccc2)cc1NC(=O)CC(=O)C(F)(F)F`, 114 to 116 °C; as for `Cc1c(-c2ccccc2)[nH]c(=O)n1C1CCN(Cc2cccc(Br)c2)CC1`, 263 to 265 °C.
With `CC1(C)CCCC2(C)CC(O)CCC12` (centres undefined) the figure was 53 to 54 °C; with `COc1ccc2c(c1)C(=O)N(CCN(C)CCN1C(=O)c3cc(OC)c(OC)cc3C(C)(C)C1=O)C(=O)C2(C)C`, 118 to 120 °C.
As for `CC1(C(=O)N2C[C@@H]3C[C@H]2C(=O)O3)CC1`, the figure is 101 to 102 °C; as for `CC1CN(C(=O)CCl)c2ccccc21` (centres undefined), 78 to 79 °C; as for `O=C1CCC(=NNc2ccc(F)cc2)c2ncccc2N1`, 232 to 233 °C.
`COc1ccc(NC(=O)c2csc(Nc3ccc(C)cn3)n2)cc1OC` returned a melting point of 212 to 214 °C.
Compound `Cc1ncc2n1-c1ccc(Cl)cc1C(c1ccccc1)=[N+]([O-])C2` displayed a melting point of 260 to 261 °C.
With `COc1ccc(-c2ccccc2)c2ccc(C)nc12` the figure was 133 to 134 °C; with `CCN(CC)CCOc1ccc(Nc2ncc3c(n2)N(C)C(=O)N(c2c(Cl)cc(Cl)cc2Cl)C3)cc1`, 142 °C; with `C=CC[C@H](C(=O)NC)c1ccc(Cl)c(Cl)c1`, 104 to 105 °C.
As for `O=C(O)COc1nnc(-c2ccc3c(c2)CCO3)o1`, the figure is 151 to 153 °C; as for `N=C(N)c1ccc(-c2ccc(-c3ccc(-c4ccc(C(=N)N)cn4)o3)o2)nc1`, more than 300 °C.
With `Oc1cccc2cc3ccccc3nc12` the figure was 115 °C.
`Fc1cc(Cl)ccc1-n1nc2c(c1Br)CCC2` displayed a melting point of 106 to 110 °C.
With `CN1CC(CCCl)Oc2ccc(F)cc2C1=S` (centres undefined) the figure was 135 to 137 °C; with `C=CCOC(=O)c1ccc(S(C)=O)c([N+](=O)[O-])c1` (centres undefined), 119 to 121 °C.
For `CCOc1nn(-c2ccc(C(F)(F)F)cn2)cc1CCCOc1cc(CCC(=O)O)n(C)n1`, the melting point lay in the range of 137 to 138 °C.
With `CCOC(=O)c1nnc2ccc(NC(=O)NC(Cc3ccccc3)C(=O)OC)cc2c1O` (centres undefined) the figure was 242 to 243 °C.
As for `CCN(CC)c1c(Cl)cc(-n2c(C(F)(F)F)nn(C)c2=S)cc1Cl`, the figure is 128 to 130 °C; as for `C(=C1CNCCN1)c1ccccc1`, 80 to 81 °C; as for `CCN(CC)c1ccc(/C=C/c2ccccc2F)cc1`, 78 to 79 °C.
With `CSc1cnn2c(Nc3ccc(F)c(Cl)c3)cc(Cl)nc12` the figure was 156 to 158 °C; with `CCCCCC1=NNC(C)=C(C(=O)NN)C1c1ccccc1` (centres undefined), 161 °C; with `CC(=O)N[C@@H](C)COc1ccc2nc(-c3ccc(OCC4CC4)c(F)c3)oc2c1`, 174 °C.
In the case of `COc1ccc(-c2c(-c3ccc(S(C)(=O)=O)cc3)n(C)n(C)c2=O)cc1`, the melting point lay within 245 to 247 °C.
Compound `COc1cc(C(=O)O)c(N)cc1OCc1ccccc1` showed a melting point of 159 to 161 °C.
As for `O=c1[nH]c2ccccc2n1CCCN1CCC(O)(c2ccc(Cl)c(C(F)(F)F)c2)CC1`, the figure is 189 °C.
As for `CCNc1nc(C#N)c(C#N)nc1-c1cccc(F)c1`, the figure is 126 to 127 °C.
With `CCN(CC)CC(C)N1c2ccccc2Sc2ccc(C(N)=S)cc21` (centres undefined), the melting point was found to be 180 °C.
`COc1ccc2c(c1)Sc1ccc(F)cc1C(N1CCN(CCN3CCOC3=O)CC1)C2` (centres undefined) registered a melting point of 177 to 179 °C.
With `CCN(O)C(=O)CCc1ccc2c(c1)C(=O)c1ccccc1CO2` the figure was 120 °C; with `O=C(Nc1ccccc1O)C(F)(F)C(O)(Cn1cncn1)c1ccc(F)cc1F` (centres undefined), 121 to 126 °C.
As for `CCCCCCCCC(SCCCCCC)C(=O)Nc1c(OC)cc(Cl)c2ncccc12` (centres undefined), the figure is 110 to 111 °C.
With `CCOC(=O)C1=C(C)N(C(C)=O)C(c2csc(C)n2)=NC1c1ccccc1` (centres undefined) the figure was 140 to 142 °C; with `COc1cccc(-c2cc3cnc(N)nc3nc2N)c1`, 284 to 286 °C.
The compound `CC(=O)Nc1ccc(OCCN2CC=C(c3ccc(F)cc3)CC2)cc1` registered a melting point of 96 to 98 °C.
As for `CCOC(=O)C1=Cc2cccc(SC)c2OCC1`, the figure is 54 to 55 °C.
With `Cc1ccccc1CNCCNCc1ccccc1C` the figure was 51 to 52 °C; with `O=c1c2c(Cl)cc(Cl)cc2n(Cc2ccccc2)c(=O)n1-c1ccccc1`, 169 to 174 °C; with `Cn1c(=O)[nH]c(=O)c2cccnc21`, 277 to 285 °C.
With `Cc1cc([N+](=O)[O-])ccc1NCC1CCCO1` (centres undefined), the melting point is 56 to 58 °C.
With `CCOC(=O)/C=C/C=C/c1ccc(CCc2nc(-c3ccccc3)oc2C)cc1` the figure was 82 to 83 °C; with `COC(=O)C(C)N(C(=O)CCl)c1c(C)cccc1C` (centres undefined), 92 to 94 °C; with `COc1ccc(COC(C)(C)C(=O)Nc2c(N)n(Cc3ccc(OC)c(OC4CCCC4)c3)c(=S)[nH]c2=O)cc1`, 172 to 184 °C.
Take `CN1Cc2c(C(N)=O)ncn2-c2cccc(Cl)c2C1=O`: the melting point is more than 250 °C.
With `CC(COc1ccc(CC2SC(=O)NC2=O)cc1)NCC(O)COc1ccccc1` (centres undefined) the figure was 64 to 68 °C; with `Cc1ccc(-c2nc(C(F)(F)F)oc2-c2ccc(S(C)(=O)=O)cc2)cc1`, 141 to 142 °C.
`COc1ccc2c(c1)NC(=O)C(N=[N+]=[N-])CC2` (centres undefined) came in with a melting point of 136 to 138 °C.
With `CC(C)OC(=O)C(CO)NC(=O)C(CC(=O)O)NC(=O)C(C)N` (stereo not drawn) (H-Ala-Asp-Ser-OiPr; configuration not given here) the figure was 222 to 234 °C; with `Cc1nc(O)nc(C)c1N1CCCn2c1nc1c(Cl)ccc(C(OC(F)F)C(F)(F)F)c12` (centres undefined), 208 to 210 °C; with `O=C1NCCc2ccc(OCCCCN3CCN(c4cccc(Cl)c4Cl)CC3)nc2N1`, 197 to 199 °C.
As for `C=C=CC1(OC(C)=O)CCC2C3CCc4cc(OC)ccc4C3CCC21C` (centres undefined), the figure is 89 to 90 °C; as for `CC(C)CCn1cc(-c2cnc3c(c2)N(Cc2c(F)ccc(F)c2Cl)CCN3)cn1`, 134 °C.
With `CC(C)(C)OC(=O)NOCC(=O)NNC(=O)c1cc(S(=O)(=O)O)cc(O)c1O` the figure was 148 to 150 °C; with `CN1CCC(c2c[nH]c(-c3ccc(F)cc3)c2-c2ccncc2)=CC1Cc1ccccc1` (centres undefined), 198 to 200 °C; with `CC(=O)c1c(-c2ccncc2)[nH]c(-c2ccncc2)c1C(F)(F)F`, 250 to 255 °C.
`CCOC(=O)C1C(=O)Nc2ccccc2SC1c1ccc(Cl)cc1` (centres undefined): the melting point was determined as 206 °C.
With `COc1ccc(C(=O)Nc2c(Cl)cncc2Cl)cc1OC1COCC1OCSC` (centres undefined) the figure was 195 to 198 °C.
As for `CCc1noc(-c2cn(-c3cccc(OC(C)C)c3)cn2)n1`, the figure is 107 °C; as for `Cn1c(CC#N)cc(Cl)c1C(=O)c1ccc(Cl)cc1`, 139 to 142 °C.

For the origin of these results see a melting point compilation (Tetko et al.; mined from patent text by program, amines drawn as free bases though some values may be those of a salt).
